Entries after “also recorded” stand apart in the source; their conditions may differ.

The subject of one series is purified mouse RGCs. As to the kind of experiment: Purified RGC culture survival. Particulars: 48 hours, vehicle 35.8+/−1.3%. Type of series: cell-based. The protocol:
(§1) (A) representative photomicrographs showing Brn-3a staining a whole-mounted retina from four weeks after ischemia injury in vehicle, 10 μM or 100 μM baicalein group; (B) bar graph quantifying the number of survived RGCs in 4 weeks post-injury retina from vehicle, 10 μM or 100 μM baicalein group; (C) bar graph the number of live primary RGC survival rate in vehicle, 1 μM baicalein group. Bar=20 μm. *P<0.05; **P<0.01 value was statistically analyzed by one-way ANOVA.
(§2) Example 1—Baicalein improves RGCs survival in vitro culture or after ischemia/reperfusion damages. To study the effect of baicalein on retinal neurons, we carried out in vitro RGC cultures and in vivo studies of RGCs survival in experimental models of retinal ischemia/reperfusion injury. RGC density dropped from 3,901+/−145 cells/mm^2 to 2,314+/−383 cells/mm^2 at 4 weeks following ischemia/reperfusion injury. […] Moreover, purified mouse RGCs were cultured with vehicle, 1 μM or 10 μM Baicalein for 48 hours.

Series [1] concerns ischemia/reperfusion mice. The settings on record: mouse, in vivo.
Protocol: The results of electroretinogram (ERG) and optomotor response (OMR) measurements were used to determine the changes of visual functions after ischemia/reperfusion damages. For ERG measurement, positive scotopic threshold response (pSTR), scotopic a- and b-wave, M-cone and 10 Hz flicker amplitudes were obtained from the three experimental groups (i.e. vehicle, 10 μM and 100 μM baicalein) at baseline, 1 wk, 2 wks and 4 wks post-ischemia/reperfusion injury (FIGS. 2A, 2B, 2C, 2D, 2E, 2F, 2G, 2H, 2I and 2J). […] At the same time, the electrical signals from M-cone and 10 Hz-flicker stimulus were also captured (FIGS. 2F, 2G, 2H, 2I and 2J).
The subject of the next series is RGCs. Briefly: RGC survival in vivo after retinal ischemia/reperfusion injury (Brn-3a whole-mount retina). Set-up: species or system mice. The settings on record: 4 weeks after ischemia/reperfusion, injured control 2,314+/−383, uninjured 3,901+/−145. The protocol:
as §1, §2

The test system of a further series is HMC-3. Briefly: Intracellular calcium after ATP stimulation. Particulars: 10 μM pretreatment 24 hrs; 50 μM ATP stimulation. Type of series: cell-based, human. For orientation: A change in cytosolic calcium serves as a functional read-out for many receptors and channels.
Another series concerns retinal microglia. As to the kind of experiment: qPCR of activated microglia markers and pro-inflammatory cytokines in retina after ischemia/reperfusion. The settings on record: 100 μM. Type of series: in vivo, mice. (Quantitative PCR measures a nucleic acid by following its amplification.)
Series [2] deals with human microglia HMC3 cell line. Briefly: Cytokine array of culture media after LPS and ATP challenge. Type of series: cell-based. The settings on record: 1 μM or 10 μM for 42 hours after 6 hours LPS and 30 mins ATP.
Protocol: (§5) (A) Quantification the averaged pixel density of selected cytokines produced by human microglia cell line HMC-3 culture. […] Error bar=SEM. *P<0.05; **P<0.01. Scale bar=100 μM. One-way ANOVA. […] After 6 hours LPS stimulation and additional 30 mins ATP challenge, vehicle, 1 μM or 10 μM baicalein was delivered to the culture media for an additional 42 hours. The culture media from different groups was collected for the cytokine array, while the cells were lysed for qPCR to identify the mRNA level.
Another series has as its system CD4+ T cells. Briefly: Flow cytometry of CD4+ T cells in retina and superior cervical lymph nodes after ischemia/reperfusion. The settings on record: 100 μM. Type of series: in vivo, mice. For orientation: In flow cytometry, cells or beads pass a laser one at a time.
The subject of series [3] is human microglia HMC3 cell line. As to the kind of experiment: qPCR of pro-inflammatory genes after LPS and ATP challenge. Type of series: cell-based. Particulars: 1 μM or 10 μM for 42 hours after LPS and ATP.
Protocol: as §5
The test system of series [4] is primary mouse brain microglia. As to the kind of experiment: PI3K and NFkB immunostaining in LPS and ATP challenged microglia. Type of series: cell-based. Particulars: 10 μM; LPS and ATP challenged mouse microglial cells. The protocol:
(§3) FIG. 5 Baicalein suppresses PI3K and NFkB pathway in both primary mouse brain microglia and human microglia HMC3 cell line in vitro. (A) Representative bright field images of primary mouse brain microglia and images immunostained with DAPI (blue), p85 PI3K (red) and p65 NFkB (green) antibody in LPS and ATP plus vehicle or 10 μM baicalein delivered group respectively. Scale bar=40 μm (B) Representative human microglia images immunostained with DAPI (blue), p85 PI3K (red) and p65 NFkB (green) antibody in LPS and ATP plus vehicle or 10 μM baicalein delivered group respectively. Error bar=SEM. *P<0.05; **P<0.01. Scale bar=100 μm.
(§4) To further understand if the effects of suppressing microglia activation and cytokines release are related with NFkB and PI3K pathway, we examine the performance of baicalein in primary mouse microglia and human microglial cell line HMC-3.

For series [5], the system named is human microglia HMC3 cell line. The description is as above. Type of series: cell-based. Particulars: 10 μM; LPS and ATP challenged human microglial cells. As for the experimental part:
as §3, §4

In series [6] the test system is ischemia/reperfusion mice. Briefly: Optomotor response (OMR) after ischemia/reperfusion injury. Type of series: in vivo.
Protocol: (K) Graphs showing contrast sensitivity (CS) and (L) visual acuity (VA) of optomotor response (OMR) in mice received ischemia/reperfusion and intravitreal injections of vehicle, 10 μM or 100 μM baicalein. Error bar=SEM. *P<0.05; **P<0.01.
[7] abbreviates: 100 μM weekly intravitreal, 4 weeks after ischemia.

Protocol for CD4+ T cells: (A) 1 wk representative flow images and (B) quantification of the CD4+ cell percentage in the retina at 1 wk and 4 wks timepoint. Flow cytometry quantification of frequencies of subsets of CD4+ T cells in the draining LNs of the eye taken from mice at 1 wk (C) and 4 wks (D) after acute ischemic injury in vehicle or 100 μM baicalein given group. Shown were percentages of CD4+ T cells that expressed IFN-γ, IL-17, IL-4, IL-10 or TGF-β among fresh-isolated total LN lymphocytes. […] Th1, Th2, Th17, and Treg cells, again were divided based on the expression profile of hallmark cytokines: IFN-γ (TH1), IL-4 (TH2), IL-10 (TH2), IL-17 (TH17), and TGF-β (Treg)^16.
Protocol for HMC-3: (A) Changes of [Ca^2+]i in cultured HMC-3 with pretreatment of vehicle or 10 μM baicalein for 24 hrs. […] (B) Quantification of [Ca^2]i levels in different treatment groups after stimulation (n=6 cultures/group, and 10-20 neurons were recorded from each group). […] To verify the effect of baicalein on the influence of microglia state, the measurement of intracellular calcium concentration [Ca2+]I was applied. After adding 50 μM ATP to microglial cells, the influx of [Ca2+]I was triggered immediately in naïve group.
Protocol for retinal microglia: Quantifications of qPCR assay showing the relative expression of (B) activated microglia markers and (C) pro-inflammatory cytokines in normal mice, and mice at 1 wk and 4 wks post ischemia/reperfusion retina from vehicle or 100 μM Ba given group. Error bar-SEM. *P<0.05.

As for `O=c1cc(-c2ccccc2)oc2cc(O)c(O)c(O)c12` [baicalein, 5,6,7-trihydroxyflavone], the RGC survival rate in the series on purified mouse RGCs (1 μM) is 42.0+/−1.2%; with purified mouse RGCs (10 μM), 41.1+/−1.9%. The “Scotopic ERG a wave and b wave (bipolar cells)” value in series [1] was “protective effects”. Also, the RGC density is 3,480+/−197 cells/mm^2 in the series on RGCs (10 μM intravitreal injection day 1 after injury) and 3,604+/−137 cells/mm^2 in the series on RGCs (100 μM intravitreal injection day 1 after injury). Moreover, in the series on HMC-3, the “elevation of intracellular calcium [Ca2+]i” value is “delayed Ca^2+ influx with reduced magnitude; also recorded: suppressed effectively”. For the same compound, in the series on retinal microglia (retina 1- and 4-week post injury), the “mRNA levels of activated microglia markers Iba-1, YM-1 and Nox2” value is given as “relatively low mRNA levels”. Besides, in the series with retinal microglia (retina, vs vehicle group), the “pro-inflammatory cytokines CCL2, IL-1α (qPCR)” value was “down-regulated”. The “release of pro-inflammatory factors (CCL2, Cxcl10, IL-1α, IL-10, TNFα, etc)” value in [2] was “largely draw the release of pro-inflammatory factors to the resting level”. Besides, the “IFNγ (TH1) CD4+ T cells in superior cervical LNs” value with CD4+ T cells (1 and 4 weeks after ischemic injury) is listed as “significantly inhibited”. Also, the “IL-10 (TH2) expression in superior cervical LNs” value with CD4+ T cells (4-week post-injury) is reported as “lower than that of vehicle-treated”. The “IL-4 (TH2) level in superior cervical LNs” value in the series with CD4+ T cells (4-week time point) was “lower than vehicle group”. Besides, in the series on CD4+ T cells (after ischemia/reperfusion injury), the “number of infiltrated T cells in the retina” value is on record as “decrease”. Further, the IL-6 expression level result in series [3] was “significant suppression”. In series [3] (vs vehicle group), the “expression of IL-10 and TNFα” value was “dramatically dropped”. Moreover, the “mRNA fold changes of IL-1β and TNFα” value in [3] (vs vehicle group) is “consistent anti-inflammation effects”. Moreover, the “PI3K and NFkB pathway activation” value in series [4] and in series [5] was “effectively reduce” throughout. The visual acuity entry in series [6] (10 μM intravitreal, after ischemia injury) was “improvement”; in series [6] (setting [7]) it was “improved”. For the same compound, the contrast sensitivity result in series [6] (setting [7]) is reported as “improved”.

Source of the values: patent publication US11826341B2, “Baicalein analogs for use in neuroprotection and regulation of immune reactivity” (THE HONG KONG POLYTECHNIC UNIVERSITY, priority 2021, dated 2023).
